According to patent US10668134B2, “Dental pretreatment material and dental tissue regeneration kit” (National Center for Geriatrics and Gerontology, priority 2016, dated 2020):

Columns and labels:
Type in all cases: cell-based
[1] = tested on: Eleventh-passage human periodontal ligament cells; assay: Senescence marker expression in senescent cells of human periodontal membrane (real-time RT-PCR); settings: 48 hours; for IL1β senescence marker expression / IL6 senescence marker expression / IL8 senescence marker expression / p16 senescence marker expression / p53 senescence marker expression: control = 1
Method: (§1) Eleventh-passage human periodontal ligament cells were plated in DMEM containing 10% FBS in collagen-coated 35 mm dishes (IWAKI) at a density of 2×10^4 cells/ml. After 20 hours, ALK5 inhibitor (SB431542) was added to final concentrations of 5 ng/μl and 10 ng/μl. Further, CCR3 antagonist (SB328437) was added to final concentrations of 5 ng/μl and 10 ng/μl. After 48 hours, mRNA was extracted, and real-time RT-PCR was performed on senescence markers, namely p16, p53, IL6, IL1b, IL8, and TNFα (Table 4).

[2] = tested on: Eleventh-passage human periodontal ligament cells; assay: Expression of migratory capacity-related factors in senescent cells of human periodontal membrane (real-time RT-PCR); settings: control = 1
Method: as §1
Real-time RT-PCR was performed on migratory capacity-related factors, namely, MMP9, MMP3, and MMP2 (Table 8) using mRNA similar to that described in 2 above.

[3] = tested on: HUVECs (Human Umbilical Vein Endothelial Cells); assay: Blood vessel-inducing capacity of culture supernatant of senescent dental pulp stem cells on HUVECs on matrigel; settings: after 5 hours, DPSC CM alone 5.9 ± 2.9 mm
Method: (§2) Non-separated 22nd-passage human dental pulp stem cells were brought into a state of 50% confluence. The medium was replaced with a serum-free medium. After 24 hours, the culture conditioned medium was collected. The supernatant was concentrated approximately 40-fold using Amicon Ultra-15 Centrifugal Filter Unit with Ultracel-3 membrane (Millipore, Billerica, Mass.) with 3-kDa molecular cut. Proteinase inhibitors (Halt™ proteinase inhibitor cocktail EDTA-free, Thermo Scientific, Rockford, Ill., USA) was added. The mixture was dispended to be stored at −80° C. Protein content was measured using Bradford Ultra™ (Expedeon, Cambridge, UK).
HUVECs (Human Umbilical Vein Endothelial Cells) (clone 7F3415) (Lonza) were cultured with EGM 2 containing 10% FBS (Lonza). Thereafter, the culture supernatant (5 μg/ml proteins) prepared in 1 above was added to DMEM, as a blood vessel-inducing medium, containing 2% FBS, 5 μg/ml heparin (Lonza), 5 μg/ml ascorbic acid (Lonza), and 5 μg/ml hydrocortisone (Lonza). Further, an ALK5 inhibitor (SB431542, 10 ng/μl) was added to a part of the resultant mixture, and a CCR3 antagonist (SB328437, 5 ng/μl) was added to another part of the resultant mixture. […] Quantitative measurement was conducted, using Suite V3 software (Leica), on the length of a formed cord or tubular lumen.

[4] = tested on: TGW cells (human neuroblastoma cell line); assay: Neurite outgrowth in TGW cells with culture conditioned medium of senescent dental pulp stem cells; settings: after 48 hours, DPSC CM alone 111.5 ± 14.1 μm
Method: as §2
The culture supernatant (5 μg/ml proteins) prepared in 1 above was added to TGW cells (human neuroblastoma cell line). Further, an ALK5 inhibitor (SB431542, 10 ng/μl) was added to a part of the resultant mixture, and a CCR3 antagonist (SB328437, 5 ng/μl) was added to another part of the resultant mixture. TGW cells to which only the culture supernatant was added was used as a negative control. […] Neurite outgrowth after 48 hours was observed and measured with an inverted microscope (Leica).

[5] = tested on: Fourth-passage human dental pulp cells; assay: Migration promotion of dental pulp cells by culture supernatant of senescent dental pulp stem cells (TAXIscan-FL); settings: 1 μl DPSC CM containing 1 μl of 20 mg/ml compound as attractant; n=4; non 5.0 ± 1.0
Method: as §2
Fourth-passage human dental pulp cells were plated in DMEM containing 10% FBS in 10 cm dishes (FALCON) at 2×10^4 cells/ml. After 48 hours, the cells were detached, and a real-time horizontal chemotaxis analysis was performed using TAXlscan-FL (Effector Cell Institute, Tokyo) to measure the migratory capacity. Specifically, channels optimized (8 μm) for the size of the cells were formed between a silicon plate having 6 μm pores and a glass plate, and 1 μl of treated dental pulp cells (10^5 cells/ml) was injected to one end portion of each of the channels (n=4). As a control, one of the channels received nothing at the opposite end portion. […] Based on the video images of migration, the number of migrating cells after 12 hours was measured.

Row | Structure (SMILES) | IL1β senescence marker expression ([1]; 5 ng/μl) | IL6 senescence marker expression ([1]; 5 ng/μl) | IL8 senescence marker expression ([1]; 5 ng/μl) | p16 senescence marker expression ([1]; 5 ng/μl) | p53 senescence marker expression ([1]; 5 ng/μl) | IL1β senescence marker expression ([1]; 10 ng/μl) | IL6 senescence marker expression ([1]; 10 ng/μl) | IL8 senescence marker expression ([1]; 10 ng/μl) | p16 senescence marker expression ([1]; 10 ng/μl) | p53 senescence marker expression ([1]; 10 ng/μl) | MMP2 expression (migratory capacity-related factor) ([2]; 5 ng/μl) | MMP3 expression (migratory capacity-related factor) ([2]; 5 ng/μl) | MMP9 expression (migratory capacity-related factor) ([2]; 5 ng/μl) | MMP2 expression (migratory capacity-related factor) ([2]; 10 ng/μl) | MMP3 expression (migratory capacity-related factor) ([2]; 10 ng/μl) | MMP9 expression (migratory capacity-related factor) ([2]; 10 ng/μl) | number of migrating cells after 12 hours, Average ± SD [5] | other results
1 | NC(=O)c1ccc(-c2nc(-c3ccc4c(c3)OCO4)c(-c3ccccn3)[nH]2)cc1 [ALK5 inhibitor, SB431542] | 0.16 | 0.20 | 0.15 | 0.36 | 0.92 | 0.03 | 0.04 | 0.04 | 0.10 | 0.50 | 0.93 | 1.08 | 0.10 | 1.02 | 0.96 | 0.06 | 12.7 ± 2.1 | TNFα mRNA expression ([1]; 5 ng/μl and 10 ng/μl added): significantly suppressed; Length of New Blood Vessel ([3]; DPSC CM + 10 ng/μl): 13.2 ± 2.6 mm; Neurite Outgrowth Length ([4]; DPSC CM + 10 ng/μl): 2710.5 ± 1223.0 μm
2 | COC(=O)[C@H](Cc1ccc([N+](=O)[O-])cc1)NC(=O)c1cccc2ccccc12 [CCR3 antagonist, SB328437] | 0.09 | 0.09 | 0.12 | 0.14 | 0.56 | 0.31 | 0.20 | 0.26 | 0.30 | 0.92 | 0.54 | 2.34 | 0 | 0.75 | 0.54 | 0.63 | 23.7 ± 5.1 | Length of New Blood Vessel ([3]; DPSC CM + 5 ng/μl): 2.8 ± 0.3 mm; Neurite Outgrowth Length ([4]; DPSC CM + 5 ng/μl): 518.7 ± 126.5 μm
